In patent US4992369A, “Fermentation process for glycopeptide antibiotic” (Pfizer Inc., priority 1986, dated 1991):

Test system: rumen fluid
Experiment: In vitro rumen technique: propionic acid production in rumen fluid
Format: cell-based
Details: 10 micrograms per milliliter; rumen fluid from fistulated cow, 39° C., about 16 hours
Protocol: The value of animal feeds has generally been determined directly by feeding the animal. British Patent Specification No. 1,197,826 details an in vitro rumen technique whereby the changes occurring in feeds brought about by microorganisms are measured more readily and with great accuracy in the evaluation of animal feeds. This technique involves the use of an apparatus in which the digestive processes of the animals are conducted and studied in vitro. The animal feeds, rumen inoculum and various growth promotants are introduced into and withdrawn from a laboratory unit under carefully controlled conditions and the changes taken place are studied critically and progressively during the consumption of the feed by the microorganisms. […] The change in propionic acid content is expressed as percent of the propionic acid content found in the control rumen fluid. Long term in vivo feeding studies are used to show a reliable correlation between propionic acid increase in the rumen fluid and improved animal performance. […]
After incubation, 5 ml. of the sample is mixed with 1 ml. of 25% metaphosphoric acid. […] Samples are then analyzed by gas-liquid chromatography by the method of D. W. Kellog, J. Dairy Science, 52, 1690, 1969. Peak heights for acetic, propionic and butyric acids are determined for samples from untreated and treated incubation flasks.

CC[C@@H](C(=O)[C@@H](C)[C@@H](O)[C@H](C)[C@@H]1O[C@@H]([C@@H](CC)C(=O)O)CC[C@@H]1C)[C@H]1O[C@]2(C=C[C@@H](O)[C@]3(CC[C@@](C)([C@H]4CC[C@](O)(CC)[C@H](C)O4)O3)O2)[C@H](C)C[C@@H]1C [salinomycin]
increase in the production of propionic acid over control: ~46%
